Earlier results on one compound are cited in patent publication US20250261634A1, “LIQUID HERBICIDAL COMPOSITIONS” (priority 2021, published 2025).

This data set has as its system weeds. The note with it: in vivo.

Consider `CP(=O)(O)CC[C@H](N)C(=O)O` (single isomer, unassigned) [L-isomer], for which the “herbicidal activity relative to the racemate” value was “twice that of the racemate”.
